Assays:
right atrial muscle = experiment: Test Method 1: enhancing rate of the pulsation of the right atrial muscle extirpated from a guinea pig; type: cell-based; details: minus values: pulsation is decreased
Experimental: (§1) The drug according to the present invention was evaluated with reference to the physiological activities by means of a method using an atrial muscle extirpated from a guinea pig.
(§2) Male guinea pigs having a body weight of 300-500 g were made swooned by striking his head and were bleeded to death. The heart was extirpated and the right and left atrial muscles were cut off. The tops of each atrial muscle were fixed with cerrefines. The muscle was suspended into an organ-bath in which a Krebs-Henseleit solution (at 32° C.) was filled, and a 95% O2 -5% CO2 gas was flown through the bath. The left atrial muscle was stimulated electrically at a frequency of 1 Hz to stabilize the contracting force of the left atrial muscle. Then, the compounds according to the present invention represented by the general formulae were added to the organ-bath. As for the right atrial muscle, after the pulsation was stabilized, the compounds according to the present invention were added in the organ-bath in the same manner as described above.
(§3) The compounds according to the present invention represented by the aforementioned general formulae enhanced the left atrial muscle contracting force dependent on their concentrations. The drug concentrations for enhancing the left atrial muscle contracting force to the levels of 20%, 50% and 100%, respectively are listed in Table 2. EC20, EC50 and EC100 indicate the molar concentration for enhancing the left atrial muscle contracting force to the levels of 20%, 50% and 100%, respectively. The enhancing rates of the pulsation of the right atrial muscle are also listed within parentheses. The minus values in parentheses indicate that the pulsation of the right atrial muscle is decreased.
(§4) As a control drug, theophylline ([…].

left atrial muscle = experiment: Test Method 1: enhancement of contracting force of left atrial muscle extirpated from a guinea pig (electrically stimulated at 1 Hz); type: cell-based; details: Cavia porcellus, Krebs-Henseleit solution 32° C.; for EC20: read-out: EC20 (molar concentration for enhancing the left atrial muscle contracting force to the level of 20%); for EC50: read-out: EC50 (molar concentration for enhancing the left atrial muscle contracting force to the level of 50%); for EC100: read-out: EC100 (molar concentration for enhancing the left atrial muscle contracting force to the level of 100%)
Experimental: as §1, §2, §3, §4

| SMILES | enhancing rate of the pulsation of the right atrial muscle (in parentheses under EC50) (right atrial muscle) [%] | EC50 (left atrial muscle) [µM] | enhancing rate of the pulsation of the right atrial muscle (in parentheses under EC20) (right atrial muscle) [%] | enhancing rate of the pulsation of the right atrial muscle (in parentheses under EC100) (right atrial muscle) [%] | EC20 (left atrial muscle) [µM] | EC100 (left atrial muscle) [µM] |
| --- | --- | --- | --- | --- | --- | --- |
| CCN(CC)c1cc(C)c2[nH]ccc(=O)c2c1 [Compound 9, 6-diethylamino-8-methyl-4(1H)-quinolone] | 15.3 | 87.1 | 8.2 | 18.0 | 40.7 | 299 |
| COc1ccc(Cn2ccc(=O)c3cc(OC)c(OC)cc32)cc1 [Compound 17, 6,7-dimethoxy-1-(4-methoxybenzyl)-4(1H)-quinolone] | -4.0 | 30 | -2.1 |  | 4.47 |  |
| COc1ccc2[nH]ccc(=O)c2c1OCc1ccccc1 [Compound 4, 5-benzyloxy-6-methoxy-4(1H)-quinolone] |  |  | 0.7 |  | 1000 |  |
| CCOC(=O)c1c[nH]c2c(OCOC)ccc(OC)c2c1=O [Compound 5, 3-ethoxycarbonyl-5-methoxy-8-methoxymethoxy-4(1H)-quinolone] |  |  | 0.2 |  | 741 |  |
| COc1cc(OCc2ccccc2)cc2c(=O)cc[nH]c12 [Compound 26, 6-benzyloxy-8-methoxy-4(1H)-quinolone] | 5.5 | 63 | 0.1 | 8.7 | 6.38 | 305 |
| COc1ccc2c(=O)cc[nH]c2c1O [Compound 3, 8-hydroxy-7-methoxy-4(1H)-quinolone] | 2.0 | 977 | 0.8 |  | 708 |  |
| O=C(c1ccccc1)c1cc(Cl)cc2c(=O)cc[nH]c12 [Compound 18, 8-benzoyl-6-chloro-4(1H)-quinolone] | 9.2 | 39.3 | 0.2 | 12.2 | 10 | 115 |
| CCCCOc1cc2c(cc1OC)c(=O)cc(-c1ccco1)n2CC [Compound 118, 7-n-butoxy-1-ethyl-2-(2-furyl)-6-methoxy-4(1H)-quinolone] | -21.2 | 49 | -5.0 |  | 10 |  |
| COC(=O)c1cn(C)c2cc(OC)c(OC)cc2c1=O [Compound 32, 6,7-dimethoxy-3-methoxycarbonyl-1-methyl-4(1H)-quinolone] | 0.3 | 85.1 | 0.1 | 0.4 | 40.7 | 282 |
| COc1cc2c(=O)ccn(C)c2cc1OC [Compound 13, 6,7-dimethoxy-1-methyl-4(1H)-quinolone] | 1.2 | 88.1 | 0.1 | 4.0 | 12.5 | 447 |

Second part, led by results:

| enhancing rate of the pulsation of the right atrial muscle (in parentheses under EC50) (right atrial muscle) [%] | EC50 (left atrial muscle) [µM] | SMILES | enhancing rate of the pulsation of the right atrial muscle (in parentheses under EC20) (right atrial muscle) [%] | enhancing rate of the pulsation of the right atrial muscle (in parentheses under EC100) (right atrial muscle) [%] | EC20 (left atrial muscle) [µM] | EC100 (left atrial muscle) [µM] |
| --- | --- | --- | --- | --- | --- | --- |
| -5.2 | 40.3 | CCOc1cc2c(cc1OC)c(=O)cc(-c1cccs1)n2CC [Compound 102, 7-ethoxy-1-ethyl-6-methoxy-2-(2-thienyl)-4(1H)-quinolone] | -0.2 |  | 2.51 |  |
| 1.7 | 76.7 | CCOC(=O)c1cn(CC)c2ccc(C)cc2c1=O [Compound 33, 3-ethoxycarbonyl-1-ethyl-6-methyl-4(1H)-quinolone] | 1.5 | -7.1 | 30 | 513 |
| -2.8 | 19.5 | CCOc1cc2c(cc1OC)c(=O)cc(-c1ccco1)n2CC [Compound 101, 7-ethoxy-1-ethyl-2-(2-furyl)-6-methoxy-4(1H)-quinolone] | -1.0 | 0.0 | 1.68 | 89.1 |
| -0.5 | 51.9 | COc1ccc(Cn2c(C3CC3)cc(=O)c3cc(OC)c(OC)cc32)cc1 [Compound 104, 2-cyclopropyl-6,7-dimethoxy-1-(4-methoxybenzyl)-4(1H)-quinolone] | -3.5 |  | 11.5 |  |
| 8.5 | 125 | CCOc1cc2c(=O)c(C(=O)O)cn(CC)c2cc1OC [Compound 86, 3-carboxyl-6-ethoxy-1-ethyl-7-methoxy-4(1H)-quinolone] | 1.5 |  | 30 |  |
| 0.5 | 34.3 | C=CCn1c(C2CC2)cc(=O)c2cc(OC)c(OCC)cc21 [Compound 103, 1-allyl-2-cyclopropyl-7-ethoxy-6-methoxy-4(1H)-quinolone] | -2.0 | 1.2 | 3 | 162 |
| -15.0 | 57.5 | CCOC(=O)c1cn(CC)c2c(C)c(C)ccc2c1=O [Compound 81, 7,8-dimethyl-3-ethoxycarbonyl-1-ethyl-4(1H)-quinolone] | -10.5 |  | 35.5 |  |
| -2.0 | 80 | CCOC(=O)c1c[nH]c2c(OC)cccc2c1=O [Compound 35, 3-ethoxycarbonyl-8-methoxy-4(1H)-quinolone] | -1.2 | -3.7 | 26 | 260 |
| -3.0 | 50.7 | CCn1c(-c2cccs2)cc(=O)c2ccccc21 [Compound 97, 1-ethyl-2-(2-thienyl)-4(1H)-quinolone] | -1.0 |  | 4.52 |  |
| 3.5 | 18.8 | O=c1cc(-c2cccs2)[nH]c2ccccc12 [Compound 100, 2-(2-thienyl)-4(1H)-quinolone] | 1.8 |  | 5.43 |  |
| 3.5 | 162 | COc1ccc(OC)c(/C=C/c2ccc3[nH]ccc(=O)c3c2)c1 [Compound 46, 6-[2-trans-(2,5-dimethoxyphenyl)vinyl]-4(1H)-quinolone] | -1.0 |  | 45.7 |  |
| -1.0 | 62.4 | CCOc1cc2c(=O)ccn(CC)c2cc1OC [Compound 49, 6-ethoxy-1-ethyl-7-methoxy-4(1H)-quinolone] | -2.5 | 10.2 | 16.8 | 229 |
| -16.0 | 36.3 | CCOC(=O)c1cn(CC)c2c(OC)cc(S(C)(=O)=O)cc2c1=O [Compound 40, 3-ethoxycarbonyl-1-ethyl-8-methoxy-6-methylsulfonyl-4(1H)-quinolone] | -4.5 |  | 4.57 |  |
| 13.5 | 47.3 | CCOc1cc2c(cc1OC)c(=O)ccn2CC [Compound 58, 7-ethoxy-1-ethyl-6-methoxy-4(1H)-quinolone] | 3.0 |  | 8.13 |  |
| -19.5 | 100 | COc1cccc2c(=O)c(C(=O)N3CCN(Cc4ccc5c(c4)OCO5)CC3)cn(C)c12 [Compound 107, 8-methoxy-1-methyl-3-{1-[4-(3,4-methylenedioxybenzyl)-piperazinyl]carbonyl}-4(1H)-quinolone] | -6.6 |  | 16.2 |  |
